Where two headings read alike, the source gives them in different places.
Experiments:
[1] = tested on: human beta-coronavirus OC43; experiment: OC43 coronavirus antiviral assay in HeLa cells (cytopathic effect, cell-titer-glo); format: cell-based; conditions: Betacoronavirus 1, OC43, HeLa, 144 h, 6 days at 33° C.
[2] = tested on: B.1.1.7 lineage SARS-CoV-2; experiment: microbe, parasite or virus in culture; format: cell-based; conditions: Severe acute respiratory syndrome coronavirus 2, 96 h, read-out: A549-dual_ACE2_TMPRSS2 (EC50)
[3] = target: T1, human cathepsin L (Homo sapiens, UniProt P07711); experiment: Cathepsin L assay (Z-FR-AMC fluorescence); format: biochemical; conditions: 10 pM human cathepsin L, 30 mins preincubation, Z-FR-AMC 2 μM
T1 construct: purchased R&D Systems
Description: For the cathepsin L assay, 10 pM of human cathepsin L (R&D Systems; Minneapolis, MN) was preincubated for 30 mins with test compounds. Reactions were initiated by the addition of a peptide substrate Z—FR-AMC (final concentration 2 μM, Anaspec; Fremont, CA). Fluorescence was measured at 2-minute intervals for 30 mins using a 355/460 excitation/emission filter module on an Envision plate reader (Perkin Elmer; Waltham, MA). The IC50 values were calculated for each assay by fitting the curves using a four-parameter equation in GraphPad Prism.

[4] = target: T2, SARS-Cov-2 3CLpro (Severe acute respiratory syndrome coronavirus 2, UniProt P0DTD1); experiment: biochemical; conditions: 3CLpro, 30 mins preincubation, SAMDI-MS
T2 construct: 3CLpro and HRV3C was added using a Multidrop Combi

[5] = target: T3, HRV3C (Human rhinovirus 14, UniProt P03303); experiment: biochemical; design: species or system HRV; conditions: HRV3C, 30 mins preincubation, SAMDI-MS; read-out: HRV IC50 (bound)
T3 construct: 3CLpro and HRV3C was added using a Multidrop Combi

[6] = read-out: SARS-Cov-2 IC50 (class)

T3 sequence (P03303 1538-1719): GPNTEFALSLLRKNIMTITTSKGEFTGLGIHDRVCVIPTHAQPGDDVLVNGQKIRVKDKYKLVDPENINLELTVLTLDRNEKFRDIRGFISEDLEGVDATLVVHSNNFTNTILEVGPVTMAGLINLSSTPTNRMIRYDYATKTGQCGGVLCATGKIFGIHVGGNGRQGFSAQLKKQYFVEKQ
T1 sequence (P07711 114-333): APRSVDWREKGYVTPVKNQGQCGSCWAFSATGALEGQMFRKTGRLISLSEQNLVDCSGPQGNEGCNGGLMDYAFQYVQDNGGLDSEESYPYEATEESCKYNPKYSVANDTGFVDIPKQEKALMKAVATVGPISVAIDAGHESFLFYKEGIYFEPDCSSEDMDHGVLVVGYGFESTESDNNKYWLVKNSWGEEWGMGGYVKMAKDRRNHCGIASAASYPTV

SMILES	EC50 ([1]; read-out: EC50 (class))	EC50 [2]	IC50 [3]	IC50 [4, 6]	IC50 [5]	EC50 ([1]; read-out: EC50 (bound))	EC50 ([2]; […], numeric bounds given instead of class symbols)	IC50 ([4]; read-out: SARS-Cov-2 IC50 (bound))
CC(C)(C)[C@H](NC(=O)C(F)(F)F)C(=O)N1C[C@@H]2[C@H]3CC[C@H](CC3)[C@@H]2[C@H]1C(=O)N[C@H](C#N)C[C@@H]1CCNC1=O (mixture of isomers) [Compound 71]	100 to 1000 nM	< 100 nM	≥ 10000 nM	< 20 nM	> 10000 nM			
CC(C)(C)[C@H](NC(=O)C(F)(F)F)C(=O)N1C[C@H]2[C@@H]([C@H]1C(=O)N[C@H](C#N)CC1CC3(CC(F)(F)C3)NC1=O)[C@H]1C=C[C@@H]2C1 (mixture of isomers) [Example 83, (1R,2S,3S,6R,7S)—N-[(1S)-1-cyano-2-{2,2-difluoro-6-oxo-5-azaspiro[3.4]octan-7-yl}ethyl]-4-[(2S)-3,3-dimethyl-2-(2,2,2-trifluoroacetamido)butanoyl]-4-azatricyclo[5.2.1.0^{2,6}]dec-8-ene-3-carboxamide]	< 100 nM	< 100 nM	≥ 10000 nM	< 20 nM	> 10000 nM			
CC(C)(C)[C@H](NC(=O)C(F)(F)F)C(=O)N1C[C@@H]2[C@@H]([C@@H]3CC[C@H]2O3)[C@@H]1C(=O)N[C@H](C#N)C[C@@H]1CCNC1=O (relative stereo) [Compound 58a]			≥ 10000 nM		> 10000 nM	> 10000 nM	> 10000 nM	> 10000 nM
CC(C)(C)[C@H](NC(=O)C(F)(F)F)C(=O)N1C[C@H]2[C@@H]([C@H]1C(=O)N[C@H](C#N)C[C@@H]1CCNC1=O)[C@H]1CC[C@@H]2O1 (relative stereo) [Compound 58b]	1000 to 10000 nM	1000 to 10000 nM	≥ 10000 nM	200 to 2000 nM	> 10000 nM			
CC(C)(C)[C@H](NC(=O)C(F)(F)F)C(=O)N1C[C@@H]2[C@@H]([C@@H]3C=C[C@H]2CC3)[C@@H]1C(=O)N[C@H](C#N)C[C@@H]1CCNC1=O (relative stereo) [Compound 59a, (1R*,3aS*,4R*,7S*,7aR*)-N-((S)-1-cyano-2-((S)-2-oxopyrrolidin-3-yl)ethyl)-2-((S)-3,3-dimethyl-2-(2,2,2-trifluoroacetamido)butanoyl)-2,3,3a,4,7,7a-hexahydro-1H-4,7-ethanoisoindole-1-carboxamide]		1000 to 10000 nM	≥ 10000 nM	200 to 2000 nM	> 10000 nM	> 10000 nM		
CC(C)(C)[C@H](NC(=O)C(F)(F)F)C(=O)N1C[C@H]2[C@@H]([C@H]1C(=O)N[C@H](C#N)C[C@@H]1CCNC1=O)[C@H]1C=C[C@@H]2C1F (stereo in doubt) [Example 91, (1S,3aS,4S,7R,7aR,8S)—N-((S)-1-cyano-2-((S)-2-oxopyrrolidin-3-yl)ethyl)-2-((S)-3,3-dimethyl-2-(2,2,2-trifluoroacetamido)butanoyl)-8-fluoro-2,3,3a,4,7,7a-hexahydro-1H-4,7-methanoisoindole-1-carboxamide]	< 100 nM	< 100 nM	≥ 10000 nM	< 20 nM	> 500 nM			
CC(C)(C)[C@H](NC(=O)C(F)(F)F)C(=O)N1C[C@H]2[C@@H]([C@H]1C(=O)N[C@H](C#N)C[C@@H]1Oc3ccccc3NC1=O)[C@H]1C=C[C@@H]2C1 [Compound 52, (1S,3aR,4S,7R,7aS)-N-((S)-1-cyano-2-((S)-3-oxo-3,4-dihydro-2H-benzo[b][1,4]oxazin-2-yl)ethyl)-2-((S)-3,3-dimethyl-2-(2,2,2-trifluoroacetamido)butanoyl)-2,3,3a,4,7,7a-hexahydro-1H-4,7-methanoisoindole-1-carboxamide]	100 to 1000 nM	100 to 1000 nM	≥ 10000 nM	< 20 nM	> 10000 nM			
COC1(C(=O)N[C@H](C(=O)N2C[C@H]3[C@@H]([C@H]2C(=O)N[C@H](C#N)C[C@@H]2CCNC2=O)[C@H]2C=C[C@@H]3C2)C(C)(C)C)CC1 [Compound 126]	100 to 1000 nM	100 to 1000 nM		20 to 200 nM	> 500 nM			
COC1(C(=O)N[C@H](C(=O)N2C[C@H]3[C@@H]([C@H]2C(=O)N[C@H](C#N)C[C@@H]2CCNC2=O)[C@H]2C=C[C@@H]3C2)C(C)(C)C)CCC1 [Compound 127]	100 to 1000 nM	< 100 nM		20 to 200 nM	> 500 nM			
CC(C)(C)[C@H](NC(=O)C(F)(F)C(F)(F)F)C(=O)N1C[C@@H]2[C@H]3C[C@@H]([C@@H]2[C@H]1C(=O)N[C@H](C#N)C[C@@H]1CCNC1=O)[C@H](F)C3 [Example 87, (1S,3aR,4S,6R,7S,7aR)—N-((S)-1-cyano-2-((S)-2-oxopyrrolidin-3-yl)ethyl)-2-((S)-3,3-dimethyl-2-(2,2,3,3,3-pentafluoropropanamido)butanoyl)-6-fluorooctahydro-1H-4,7-methanoisoindole-1-carboxamide]	< 100 nM	< 100 nM		< 20 nM	> 500 nM			
CC(C)(C)[C@H](NC(=O)C(F)(F)F)C(=O)N1C[C@@H]2[C@@H]3C=C[C@@H]([C@H]4C[C@@H]34)[C@@H]2C1C(=O)N[C@H](C#N)C[C@@H]1CCNC1=O (stereo partly drawn) [Example 88, (3aR,4R,4aR,5aS,6S,6aS)-N-((S)-1-cyano-2-((S)-2-oxopyrrolidin-3-yl)ethyl)-2-((S)-3,3-dimethyl-2-(2,2,2-trifluoroacetamido)butanoyl)-1,2,3,3a,4,4a,5,5a,6,6a-decahydro-4,6-ethenocyclopropa[f]isoindole-1-carboxamide]	100 to 1000 nM	100 to 1000 nM		< 20 nM	> 10000 nM			
CC(C)(C)[C@H](NC(=O)C(F)(F)F)C(=O)N1C[C@H]2[C@@H]([C@H]1C(=O)N[C@H](C#N)C[C@@H]1CCNC1=O)[C@H]1C=C[C@@H]2C1=O [Example 89, (1R,2R,3S,6S,7S)—N-[(1S)-1-cyano-2-[(3S)-2-oxopyrrolidin-3-yl]ethyl]-4-[(2S)-3,3-dimethyl-2-(2,2,2-trifluoroacetamido)butanoyl]-10-oxo-4-azatricyclo[5.2.1.0^{2,6}]dec-8-ene-3-carboxamide]	100 to 1000 nM	100 to 1000 nM		< 20 nM	> 10000 nM			
CC(C)(C)[C@H](NC(=O)C(F)(F)F)C(=O)N1C[C@H]2[C@@H]([C@H]1C(=O)N[C@H](C#N)C[C@@H]1CCNC1=O)[C@H]1CC[C@@H]2C1(F)F [Example 92, (1S,3aS,4S,7R,7aR)—N-((S)-1-cyano-2-((S)-2-oxopyrrolidin-3-yl)ethyl)-2-((S)-3,3-dimethyl-2-(2,2,2-trifluoroacetamido)butanoyl)-8,8-difluorooctahydro-1H-4,7-methanoisoindole-1-carboxamide]	100 to 1000 nM	100 to 1000 nM		20 to 200 nM	> 500 nM			
C[C@H]1[C@H]2[C@@H]([C@@H](C(=O)N[C@H](C#N)C[C@@H]3CCNC3=O)N1C(=O)[C@@H](NC(=O)C(F)(F)F)C(C)(C)C)[C@H]1C=C[C@@H]2C1 [Example 93, (1R,2S,3S,5S,6R,7S)—N-[(1S)-1-cyano-2-[(3S)-2-oxopyrrolidin-3-yl]ethyl]-4-[(2S)-3,3-dimethyl-2-(2,2,2-trifluoroacetamido)butanoyl]-5-methyl-4-azatricyclo[5.2.1.0^{2,6}]dec-8-ene-3-carboxamide]	< 100 nM	< 100 nM		< 20 nM	> 500 nM			
N#C[C@H](C[C@@H]1CCNC1=O)NC(=O)[C@@H]1[C@@H]2[C@H](CN1C(=O)[C@H](CC1CCC1)NC(=O)C(F)(F)F)[C@@H]1C=C[C@H]2C1 [Example 95]	< 100 nM	< 100 nM		< 20 nM	> 10000 nM			
CC(C)(C)[C@H](NC(=O)C(F)(F)F)C(=O)N1C[C@@H]2[C@H]3C[C@H](C[C@@H]3F)[C@@H]2[C@H]1C(=O)N[C@H](C#N)C[C@@H]1CCNC1=O [Example 96]	100 to 1000 nM	100 to 1000 nM		20 to 200 nM	> 500 nM			
C=C(C)C(C)(C)[C@H](NC(=O)C(F)(F)F)C(=O)N1C[C@H]2[C@@H]([C@H]1C(=O)N[C@H](C#N)C[C@@H]1CCNC1=O)[C@H]1C=C[C@@H]2C1 [Example 97]	< 100 nM	< 100 nM		< 20 nM	> 10000 nM			
C[C@@H](OC(F)F)[C@H](NC(=O)C(F)(F)F)C(=O)N1C[C@H]2[C@@H]([C@H]1C(=O)N[C@H](C#N)C[C@@H]1CCNC1=O)[C@H]1C=C[C@@H]2C1 [Example 98, (1S,3aR,4S,7R,7aS)-N-((S)-1-cyano-2-((S)-2-oxopyrrolidin-3-yl)ethyl)-2-(O-(difluoromethyl)-N-(2,2,2-trifluoroacetyl)-L-threonyl)-2,3,3a,4,7,7a-hexahydro-1H-4,7-methanoisoindole-1-carboxamide]	< 100 nM	< 100 nM		< 20 nM	> 500 nM			

— US12252481B2, “Anti-viral compounds” (Aligos Therapeutics, Inc., priority 2021, dated 2025)
